In patent US20260116921A1, “PEPTIDE INHIBITORS OF INTERLEUKIN-23 RECEPTOR AND THEIR USE TO TREAT INFLAMMATORY DISEASES” (priority 2018, published 2026):
Where two headings read alike, the source gives them in different places. Numbered stars: 1 amine (or outer) side, 2 acyl side, 3 side chain; on linkers, the order of the positions; unused ones are H or OH. Bridge positions count the residues as written; N and C are the ends. Square brackets hold non-standard residues; d marks the D form. Peptide text beside a SMILES is read from it. Trp(7-Me) = Cc1cccc2c(C[C@H](N)C(=O)O)c[nH]c12; Trp(1-Me) = Cn1cc(C[C@H](N)C(=O)O)c2ccccc21; Abu(4-yl) = O=C([C@H](CC[*:3])N[*:1])[*:2]; 2Nal = N[C@@H](Cc1ccc2ccccc2c1)C(=O)O; AEF = NCCOc1ccc(C[C@H](N)C(=O)O)cc1; Cit = NC(=O)NCCC[C@H](N)C(=O)O; Pen = CC(C)(S)[C@H](N)C(=O)O; αMeK = C[C@](N)(CCCCN)C(=O)O; βAla = NCCC(=O)O

Assays:
IL-23R = biological target: T1, IL-23R (Homo sapiens, UniProt Q5VWK5); experiment: DB cells IL23R pSTAT3 cell assay (pStat3 HTRF); type: cell-based; conditions: Table E3; DB cells, IL-23 0.5 nM, 30 minutes at 37° C.; read-out: pStat3 HTRF (IC50)
T1 sequence (Q5VWK5 24-629): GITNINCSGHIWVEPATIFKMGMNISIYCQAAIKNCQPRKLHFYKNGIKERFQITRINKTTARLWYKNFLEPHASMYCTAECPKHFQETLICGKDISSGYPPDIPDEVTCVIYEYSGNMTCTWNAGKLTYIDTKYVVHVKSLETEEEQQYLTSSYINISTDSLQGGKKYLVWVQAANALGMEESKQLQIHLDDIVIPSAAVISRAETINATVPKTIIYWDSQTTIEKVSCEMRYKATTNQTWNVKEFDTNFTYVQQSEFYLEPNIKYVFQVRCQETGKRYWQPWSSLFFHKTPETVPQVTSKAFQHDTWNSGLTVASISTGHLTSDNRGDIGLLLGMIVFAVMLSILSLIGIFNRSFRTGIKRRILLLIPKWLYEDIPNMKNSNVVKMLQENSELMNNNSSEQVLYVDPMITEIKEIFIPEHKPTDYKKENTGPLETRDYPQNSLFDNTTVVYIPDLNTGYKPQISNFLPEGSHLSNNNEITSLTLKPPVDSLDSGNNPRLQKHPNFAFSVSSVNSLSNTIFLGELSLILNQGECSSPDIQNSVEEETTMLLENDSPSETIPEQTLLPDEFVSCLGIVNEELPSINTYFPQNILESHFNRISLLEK
Procedure, shortened: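 DB cells (5×10E5/well, RPMI-1640 + 10% FBS) stimulated with 0.5 nM final IL-23 plus serially diluted test peptides for 30 min at 37 °C, 5% CO2. Phospho-STAT3 (Tyr705) in lysates measured by HTRF using a two-plate protocol.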

in vitro [1] = type: in vitro ADME; set-up: half-life: dose or concentration left out as unconfirmed; conditions: simulated intestinal fluid (SIF) with pancreatin, pH 6.8, 37° C., § matrix is 100 fold dilution of standard SIF concentration, read-out: SIF t½ (converted)
in vitro [2] = conditions: human, pH 6.8; for half-life at 20 μM: 20% fecal homogenate (supernatant), anaerobic
in vitro [3] = conditions: cynomolgus monkey, pH 6.8; for half-life at 20 μM: 20% fecal homogenate (supernatant), anaerobic
in vitro [4] = conditions: both, SD, rat; for half-life at 20 μM: plasma (EDTA)
Procedure: Peptides of interest (20 μM) were incubated with pre-warmed rat plasma (SD rat, mixed gender pooled, EDTA, filtered through 0.22 μm, BioreclamationIVT) at 37° C. […] Quenched samples were stored at 4° C. until the end of the experiment and centrifuged at 4,000 rpm for 10 minutes. The supernatant were diluted 1:1 with deionized water and analyzed using LC-MS. Percentage remaining at each time point was calculated based on the peak area ratio (analyte over internal standard) relative to the initial level at time zero. Half-lives were calculated by fitting to a first-order exponential decay equation using GraphPad.

Row | SMILES | IC50 (IL-23R) [nM] | half-life (in vitro [1]) [h] | half-life at 20 μM (in vitro [2]) [h] | half-life at 20 μM (in vitro [3]) [h] | half-life at 20 μM (in vitro [4]) [h] | half-life (in vitro [2]; tissue homogenate) [h] | half-life (in vitro [3]; tissue homogenate) [h] | half-life (in vitro [4]; plasma) [h]
1 | CC(=O)NCCCC[C@H](NC(=O)[C@](C)(CCCCN)NC(=O)[C@H](Cc1ccc2ccccc2c1)NC(=O)[C@H](Cc1ccc(OCCN)cc1)NC(=O)[C@H]1NC(=O)[C@H](CCCCNC(=O)CC(C)C)NC(=O)[C@H](Cc2c[nH]c3c(C)cccc23)NC(=O)[C@H]([C@@H](C)O)NC(=O)[C@H](CC(N)=O)NC(=O)[C@@H](NC(C)=O)C(C)(C)SSC1(C)C)C(=O)N[C@@H](CC(N)=O)C(=O)N[C@H](CC(C)C)C(N)=O [compound 315] | 1 to 10 | 9 | – | – | – | – | – | –
2 | CC(=O)NCCCC[C@H](NC(=O)[C@](C)(CCCCN)NC(=O)[C@H](Cc1ccc2ccccc2c1)NC(=O)[C@H](Cc1ccc(OCCN)cc1)NC(=O)[C@H]1NC(=O)[C@H](CCCCNC(=O)C2CCCCC2)NC(=O)[C@H](Cc2c[nH]c3c(C)cccc23)NC(=O)[C@H]([C@@H](C)O)NC(=O)[C@H](CC(N)=O)NC(=O)[C@@H](NC(C)=O)C(C)(C)SSC1(C)C)C(=O)N[C@@H](CC(N)=O)C(=O)N[C@H](CC(C)C)C(N)=O [compound 316] | 1 to 10 | 7 | – | – | – | – | – | –
3 | CC(=O)NCCCC[C@H](NC(=O)[C@](C)(CCCCN)NC(=O)[C@H](Cc1ccc2ccccc2c1)NC(=O)[C@H](Cc1ccc(OCCN)cc1)NC(=O)[C@H]1NC(=O)[C@H](CCCCNC(=O)CN)NC(=O)[C@H](Cc2c[nH]c3c(C)cccc23)NC(=O)[C@H]([C@@H](C)O)NC(=O)[C@H](CC(N)=O)NC(=O)[C@@H](NC(C)=O)C(C)(C)SSC1(C)C)C(=O)N[C@@H](CC(N)=O)C(=O)N[C@H](CC(C)C)C(N)=O [compound 320] | < 1 | 12 | – | – | – | – | – | –
4 | CC(=O)NCCCC[C@H](NC(=O)[C@](C)(CCCCN)NC(=O)[C@H](Cc1ccc2ccccc2c1)NC(=O)[C@H](Cc1ccc(OCCN)cc1)NC(=O)[C@H]1NC(=O)[C@H](CCCNC(N)=O)NC(=O)[C@H](Cc2c[nH]c3c(C)cccc23)NC(=O)[C@H]([C@@H](C)O)NC(=O)[C@H](CC(N)=O)NC(=O)[C@@H](NC(C)=O)C(C)(C)SSC1(C)C)C(=O)N[C@@H](CC(N)=O)C(=O)N[C@H](CCCNC(=N)N)C(N)=O [compound 256] (Ac-[Pen]NT[Trp(7-Me)][Cit][Pen][AEF][2Nal][αMeK]K(Ac)N[dR]-NH2; disulfide 1-6) | < 1 | – | > 24 | > 24 | > 24 | – | – | –
5 | CC(=O)NCCCC[C@H](NC(=O)[C@](C)(CCCCN)NC(=O)[C@H](Cc1cn(C)c2ccccc12)NC(=O)[C@H](Cc1ccc(OCCN)cc1)NC(=O)[C@H]1NC(=O)[C@H](CCC(N)=O)NC(=O)[C@H](Cc2c[nH]c3c(C)cccc23)NC(=O)[C@H]([C@@H](C)O)NC(=O)[C@H](CC(N)=O)NC(=O)[C@@H](NC(C)=O)C(C)(C)SSC1(C)C)C(=O)N[C@@H](CC(N)=O)C(=O)NCCC(N)=O [compound 283] (Ac-[Pen]NT[Trp(7-Me)]Q[Pen][AEF][Trp(1-Me)][αMeK]K(Ac)N[βAla]-NH2; disulfide 1-6) | 1 to 10 | – | > 24 | 17 | > 24 | – | – | –
6 | CC(=O)NCCCC[C@H](NC(=O)[C@](C)(CCCCN)NC(=O)[C@H](Cc1ccc2ccccc2c1)NC(=O)[C@H](Cc1ccc(OCCN)cc1)NC(=O)[C@H]1NC(=O)[C@H](CCCCNC(=O)CCN)NC(=O)[C@H](Cc2c[nH]c3c(C)cccc23)NC(=O)[C@H]([C@@H](C)O)NC(=O)[C@H](CC(N)=O)NC(=O)[C@@H](NC(C)=O)C(C)(C)SSC1(C)C)C(=O)N[C@@H](CC(N)=O)C(=O)N[C@H](CC(C)C)C(N)=O [compound 321] | 1 to 10 | 3 | – | – | – | – | – | –
7 | CC(=O)NCCCC[C@H](NC(=O)[C@](C)(CC(C)C)NC(=O)[C@H](Cc1ccc2ccccc2c1)NC(=O)[C@H](Cc1ccc(OCCN)cc1)NC(=O)[C@H]1NC(=O)[C@H](CCC(N)=O)NC(=O)[C@H](Cc2c[nH]c3c(C)cccc23)NC(=O)[C@H]([C@@H](C)O)NC(=O)[C@H](CC(N)=O)NC(=O)[C@@H](NC(C)=O)C(C)(C)SSC1(C)C)C(=O)N[C@H](Cc1c[nH]cn1)C(=O)NCCC(N)=O [compound 215] | 1 to 10 | – | – | – | – | > 24 | > 24 | 2
8 | CC(=O)NCCCC[C@@H]1NC(=O)[C@H](Cc2c[nH]c3c(C)cccc23)NC(=O)[C@H]([C@@H](C)O)NC(=O)[C@H](CCC(N)=O)NC(=O)[C@@H](NC(=O)[C@@H](CCCNC(=N)N)NC(C)=O)CCSC[C@@H](C(=O)N[C@@H](Cc2ccc(OCCN)cc2)C(=O)N[C@@H](Cc2ccc3ccccc3c2)C(=O)N[C@@](C)(CCCCN)C(=O)N[C@@H](CCCCNC(C)=O)C(=O)N[C@@H](CC(N)=O)C(=O)N[C@H](CCCCN)C(N)=O)NC1=O [compound 324] (Ac-[dR][Abu(4-yl)]QT[Trp(7-Me)]K(Ac)C[AEF][2Nal][αMeK]K(Ac)N[dK]-NH2; thioether 2-7) | 10 to 100 | 1 | – | – | – | – | – | –
9 | CC(=O)NCCCC[C@H](NC(=O)[C@](C)(CCCCN)NC(=O)[C@H](Cc1ccc2ccccc2c1)NC(=O)[C@H](Cc1ccc(OCCN)cc1)NC(=O)[C@H]1NC(=O)[C@H](CCC(N)=O)NC(=O)[C@H](Cc2c[nH]c3c(C)cccc23)NC(=O)[C@H]([C@@H](C)O)NC(=O)[C@H](CCC(N)=O)NC(=O)[C@@H](NC(C)=O)C(C)(C)SSC1(C)C)C(=O)N[C@@H](CC(N)=O)C(=O)NCCC(N)=O [compound 237] | 1 to 10 | – | > 24 | 6 | > 24 | – | – | –
10 | CC(=O)NCCCC[C@H](NC(=O)[C@](C)(CCCCN)NC(=O)[C@H](Cc1ccc2ccccc2c1)NC(=O)[C@H](Cc1ccc(OCCN)cc1)NC(=O)[C@H]1NC(=O)[C@H](CCCNC(N)=O)NC(=O)[C@H](Cc2c[nH]c3c(C)cccc23)NC(=O)[C@H]([C@@H](C)O)NC(=O)[C@H](CC(N)=O)NC(=O)[C@@H](NC(C)=O)C(C)(C)SSC1(C)C)C(=O)N[C@@H](CC(N)=O)C(=O)N[C@@H](Cc1ccc(O)cc1)C(N)=O [compound 266] (Ac-[Pen]NT[Trp(7-Me)][Cit][Pen][AEF][2Nal][αMeK]K(Ac)NY-NH2; disulfide 1-6) | 1 to 10 | – | 16 | 7 | > 24 | – | – | –
11 | CC(=O)N[C@@H]1C(=O)N[C@@H](CC(N)=O)C(=O)N[C@@H]([C@@H](C)O)C(=O)N[C@@H](Cc2c[nH]c3c(C)cccc23)C(=O)N[C@@H](CCC(N)=O)C(=O)N[C@H](C(=O)N[C@@H](Cc2ccc(OCCN)cc2)C(=O)N[C@@H](Cc2ccc3ccccc3c2)C(=O)N[C@@](C)(CC(C)C)C(=O)NCC(=O)N2CCC[C@H]2C(=O)NCCC(N)=O)C(C)(C)SSC1(C)C [compound 219] | 10 to 100 | – | 16 | 24 | 3 | – | – | –
12 | CC(=O)N[C@H]1CCSC[C@@H](C(=O)N[C@@H](Cc2ccc(OCCN)cc2)C(=O)N[C@@H](Cc2ccc3ccccc3c2)C(=O)NC2(C(=O)N[C@@H](CCC(=O)O)C(=O)N[C@@H](CC(N)=O)C(=O)NCCC(N)=O)CCOCC2)NC(=O)[C@H](CCC(N)=O)NC(=O)[C@H](Cc2c[nH]c3c(C)cccc23)NC(=O)[C@H]([C@@H](C)O)NC(=O)[C@H](CCC(N)=O)NC1=O [compound 204] | 1 to 10 | 19 | 1 | 5 | – | – | – | –
13 | CC(=O)NCCCC[C@H](NC(=O)[C@](C)(CC(C)C)NC(=O)[C@H](Cc1ccc2ccccc2c1)NC(=O)[C@H](Cc1ccc(OCCN)cc1)NC(=O)[C@H]1NC(=O)[C@H](CCC(N)=O)NC(=O)[C@H](Cc2c[nH]c3c(C)cccc23)NC(=O)[C@H]([C@@H](C)O)NC(=O)[C@H](CC(N)=O)NC(=O)[C@@H](NC(C)=O)C(C)(C)SSC1(C)C)C(=O)N[C@H](CC(C)C)C(=O)NCCC(N)=O [compound 210] | 10 to 100 | – | > 24 | > 24 | < 0.3 | – | – | –
14 | CC(=O)NCCCC[C@H](NC(=O)[C@](C)(CCCCN)NC(=O)[C@H](Cc1ccc2ccccc2c1)NC(=O)[C@H](Cc1ccc(OCCN)cc1)NC(=O)[C@H]1NC(=O)[C@H](CCC(N)=O)NC(=O)[C@H](Cc2c[nH]c3c(C)cccc23)NC(=O)[C@H]([C@@H](C)O)NC(=O)[C@H](CC(N)=O)NC(=O)[C@@H](NC(C)=O)C(C)(C)SSC1(C)C)C(=O)N[C@@H](CC(C)C)C(=O)NCCC(N)=O [compound 269] | 1 to 10 | – | > 24 | > 24 | > 24 | – | – | –
